Data published in patent US5800838A, “Composition that inhibits or destroys at least one unicellular living organism containing fluorine F- and Lithium li+” (priority 1987, dated 1998).
Values after ≈ are worked out from the molar mass of the structure shown. Where two headings read alike, the source gives them in different places.

Tests used:
Klebsiella pneumoniae [1] = system: Klebsiella pneumoniae
Staphylococcus aureus [2] = details: A (tetracycline) in presence of B (Fli)
Experimental: (§9) Concentration series of two antibiotic substances A and B are prepared in the geometric ratio of 2 are combined and the following values are determined:
(§10) MIC B/A = minimal inhibiting concentration B in presence of A [formula]
(§11) The MIC of the bacteriostatic effect is read when the percentage of surviving strains is less or equal to 1%.
(§12) The combination of the substances A and B is synergistic as regards the bacteriostatic effect when FIC≤0,75. The combination is additive when FIC=1. The combination is insensible when 1<FIC≤2. The combination is antagonistic when FIC>2.
(§13) Substance A was tetracycline (concentration serie from 0,25 to 128 mg/l)
(§14) Substance B was Fli (concentration serie from 0,25 to 16 mg/l)
(§15) The strain was staphylococcus aureus (wild-type hospital resistant strain)

Klebsiella pneumoniae [3] = test: microbe, parasite or virus in culture
Experimental: The MIC of tetracycline was studied on Klebsiella pneumoniae (wild-type hospital strain).
The trial was conducted with tetracycline alone, tetracycline in presence of FNa and tetracycline in presence of Fli.

Staphylococcus aureus [4] = test: microbe, parasite or virus in culture; details: read-out: MIC alone (MIC A, MIC B)
Experimental: as §9, §10, §11, §12, §13, §14, §15

streptococcus group F = test: Phenotype of resistant wild-type hospital strains with activated antibiotics (Example 35); assay type: cell-based; details: Fli 4 ppm
Experimental: Strains Gram+ and Gram- (wild-type hospital) having a resistant phenotype vis a vis standard firstly and secondly used antibiotherapy were experimented on activated antibiotics.
250 experiments were conducted on the following strains: Streptococcus group B, C, D, F, G, Staphylococcus aureus, Staphylococcus epidermitis, Klebsiella pneumoniae, Klebsiella spirochete, Klebsiella oxytoca, Proteus mirabilis, Serratia marcescens, Escherichia coli, Citrobacter freundii, Enterobacter cloacae, Enterobacter calcoaceticus, Salmonella spirochete, Salmonella typhimurium, Pseudomonas aeruginosa, Haemophilus influenzae, Haemophilus sphrophilus, Acinetobacter calcoaeticus. […]

Staphylococcus aureus [5] = test: Activity on wild-type hospital strains responsible for skin infections; assay type: cell-based
Escherichia coli = test: as above; assay type: cell-based
Group C streptococcus = test: as above; assay type: cell-based
salmonella spirochete = test: "Time killing curve", optical density at 600 nm; assay type: cell-based; details: Fli 32 ppm
Experimental: (§1) The kinetics of the bacterial growth of serratia marcescens and salmonella spirochete has been studied with the "Time killing curve" methodology, for gentamicine (64 ppm) alone, Fli (32 ppm) and gentamicine (64 ppm) in presence of Fli (32 ppm). The bacterial growth is determined by spectrophotometric reading of the optical density for a wavelength of 600 nm.
(§2) The following table illustrates the optical density (1/100) obtained: […]

serratia marcescens [6] = test: "Time killing curve", optical density at 600 nm; assay type: cell-based; details: Fli 32 ppm
Experimental: as §1, §2

[7] = system: pseudomonas aeruginosa and Escherichia coli; assay type: cell-based
Source text: It is known that a strain develops a resistance against an antibiotic substance with which it is left in contact, by a phenotypical mutation procedure.
This phenomena has been studied on pseudomonas aeruginosa and Escherichia coli (wild-type hospital strains) which commonly develop resistance against aminosides. The antibiotic substance choosen was thus gentamicine which is an aminoside antibiotic.
And the growth of the resistance was studied with gentamicine alone, then with gentamicine in presence of Fli.
The trial was conducted on 12 days, and the MIC of gentamicine alone and of gentamicine in presence of Fli (4 ppm) was determined each day on transportplates in liquid medium with a serie of dilution in Mueller/Hinton agar.
The MBC (Minimal Bactericide Concentration) was also determined from the solution after determination of the MIC seeded on agar adapted to the strain. The MBC is read for a percentage of survivors less than 0,20%.

proteus mirabilis = test: "chess" test, dilution in liquid medium, Trial 2; assay type: cell-based
Source text: (§3) Substance A was gentamicine
The strain was a very resistant proteus mirabilis (wild-type hospital)

serratia marcescens [8] = test: MIC of gentamicine, inclined agar with concentration gradient; assay type: cell-based
Experimental: (§4) The strains used were wild-type hospital strains having a resistant phenotype as regards gentamicine: pseudomonas aeruginosa, proteus mirabilis, serratia marcescens.
(§5) The phenotype of the strains was determined by diffusion in gradient on selective agar. Then, each group of strains having the same phenotype (resistant or sensible) was seeded on inclined agar having a gradient of concentration of the composition.
(§6) This methodology is explained by SZYBALSKI and BRYSON in "Selection de mutants resistant aux antibiotiques", L'antibiogramme, Vigot, p. 259-260.
(§7) The results are shown in the following table illustrating the MIC of gentamicine (aminoglycoside antibiotic).
(§8) x/y means a concentration read between x ppm and y ppm.

Pseudomonas aeruginosa [9] = test: as above; assay type: cell-based; details: in presence of Fli at 16; RESISTANT strains
Experimental: as §4, §5, §6, §7, §8

Klebsiella pneumoniae [10] = test: "chess" test, dilution in liquid medium, Trial 3; assay type: cell-based
Source text: as §3
The strain was Klebsiella pneumoniae (wild-type hospital strain)

Pseudomonas aeruginosa [11] = test: "chess" test, dilution in liquid medium, Trial 4; assay type: cell-based
Source text: as §3
The strain was pseudomonas aeruginosa (wild-type hospital resistant strain)

[12] = read-out: 100% inhibitory concentration, alone
[13] = A (gentamicine) in presence of B (Fli)

`CN(C)C1C(=O)C(C(N)=O)=C(O)C2(O)C(=O)C3=C(O)c4c(O)cccc4C(C)(O)C3CC12` (centres unmarked) [TETRACYCLINE, tetracycline] was tested, and the MIC (Haemophilus influenzae; [12]) was 4 to 8 µg/mL (≈ 9 to 18 µM), the MIC (Haemophilus influenzae; read-out: 100% inhibitory concentration, in the presence of LiF 4 ppm) was 2 to 4 µg/mL and the MIC (Klebsiella pneumoniae [1]; [12]) was 0.5 µg/mL (≈ 1.13 µM). The MIC (Klebsiella pneumoniae [1]; read-out: 100% inhibitory concentration, in the presence of LiF 2 ppm) was 0.25 µg/mL, the “MIC A/B” value (Staphylococcus aureus [2]) was 4 µg/mL and the MIC (Klebsiella pneumoniae [3]) was 512 µg/mL (≈ 1150 µM). For the same compound, the MIC (Staphylococcus aureus [4]) was 32 µg/mL (≈ 72 µM).
With `CC1(C)S[C@@H]2[C@H](NC(=O)Cc3ccccc3)C(=O)N2[C@H]1C(=O)O` [penicilline group G] the “phenotype in presence of Fli” value (streptococcus group F) was “the insensible phenotype was not changed”.
With POLYMIXIN B the 100% inhibitory concentration (Staphylococcus aureus [5]; alone) was > 128 ppm, the 100% inhibitory concentration (Staphylococcus aureus [5]; in the presence of LiF 2 ppm) was 64 ppm and the 100% inhibitory concentration (Escherichia coli; alone) was > 128 ppm. For the same compound, the 100% inhibitory concentration (Escherichia coli; in the presence of LiF 2 ppm) was 64 ppm, the 100% inhibitory concentration (Group C streptococcus; alone) was > 128 ppm and the 100% inhibitory concentration (Group C streptococcus; in the presence of LiF 8 ppm) was 64 ppm.
With gentamicine the “optical density (1/100)” value (salmonella spirochete; 3 h 00, gentamicine 64 ppm) was 8 1/100, the “optical density (1/100)” value (salmonella spirochete; 6 h 00, gentamicine 64 ppm) was 7 1/100 and the “optical density (1/100)” value (serratia marcescens [6]; 6 h 00, gentamicine 64 ppm) was 5 1/100. The “optical density (1/100)” value (serratia marcescens [6]; 24 h 00, gentamicine 64 ppm) was 4 1/100, the “day the resistance appears” value ([7]; gentamicine alone) was “the third or fourth day” and the “day the resistance appears” value ([7]; gentamicine with Fli (4 ppm)) was “the fourth or sixth day”. For the same compound, the “MIC A/B” value (proteus mirabilis; [13]) was 16 µg/mL, the “MIC alone (MIC A, MIC B)” value (proteus mirabilis; alone, very resistant wild-type hospital strain) was 64 µg/mL and the MIC (serratia marcescens [8]; in presence of Fli at 8, SENSIBLE strains) was 8 ppm or mg/l. The MIC (serratia marcescens [8]; in presence of Fli at 16, RESISTANT strains) was 32 ppm or mg/l, the MIC (Pseudomonas aeruginosa [9]) was 64 ppm or mg/l and the “MIC A/B” value (Klebsiella pneumoniae [10]; [13]) was 4 µg/mL. The “MIC alone (MIC A, MIC B)” value (Klebsiella pneumoniae [10]; alone, wild-type hospital strain) was 16 µg/mL, the “MIC A/B” value (Pseudomonas aeruginosa [11]; [13]) was 16 µg/mL and the “MIC alone (MIC A, MIC B)” value (Pseudomonas aeruginosa [11]; alone, wild-type hospital resistant strain) was 64 µg/mL.
